We go through 3 molecules from publication PMC3155955 (Bioorganic & medicinal chemistry letters, 2011).

In assay [1] the test system is HCT-116 human colon cancer cells. Briefly: MTS cytotoxicity assay, HCT-116. Type of assay: cell-based. (In general: Formazan colour is commonly taken as a measure of viable cells.)
Assay [2] concerns CCD-18Co normal colon fibroblasts. Description: MTS cytotoxicity assay, CCD-18Co. The assay is classed as cell-based, human. As to conditions: colon cancer cells (HCT-116, Caco-2) vs CCD-18Co.
Assay [3] concerns Caco-2 human colon cancer cells. Briefly: MTS cytotoxicity assay, Caco-2. The assay is classed as cell-based. As to conditions: Caco-2, read-out: IC50 (consistent values of the control).

Take `COc1cc2c3c(c1O)-c1cc4c(cc1C[C@@H]3N(C)CC2)OCO4` [Compound 1, domesticine]: the “fold less potent than the benchmark etoposide” value in assay [1] (HCT-116 cell line) was “approximately 3 fold”.

`CCC(CC)COc1c(OC)cc2c3c1-c1cc4c(cc1C[C@@H]3N(C)CC2)OCO4` [Compound 3]: the “selectivity for colon cancer cells vs normal colon fibroblasts (CCD-18Co)” value in assay [2] is “approximately 2 fold”.

A word on the IC50: it is the point on the concentration scale where inhibition reaches its midpoint. With `COc1cc([C@@H]2c3cc4c(cc3[C@@H](O[C@@H]3O[C@@H]5CO[C@@H](C)O[C@H]5[C@H](O)[C@H]3O)[C@H]3COC(=O)[C@H]23)OCO4)cc(OC)c1O` [etoposide], the IC50 in assay [1] (Homo sapiens, HCT-116, read-out: IC50 (consistent values of the control)) lay in the range of 15 to 25 µM; in assay [3], 15 to 25 µM.
